In patent publication US20210348119A1, “COMPOSITIONS AND METHODS FOR CELL CULTURE” (The United States of America as Represented By The …, priority 2018, published 2021):
Read-outs that look alike come from different tables or passages of the source.

Experiments:
[1] = test system: H9 cells; test: Cell survival after routine passage (caspase 3/7 imaging, CTG); assay type: cell-based, human; conditions: 100,000 cells per cm^2; 10 μM Y-27632, 50 nM Chroman 1, 5 μM Emricasan
[2] = target: T1, ROCK1 (Homo sapiens, UniProt Q13464); test: HotSpot Kinase Assay (Reaction Biology) ROCK1; assay type: biochemical
T1 construct: purchased Reaction Biology Corporation (Malvern, Pa.)

[3] = test system: H9 cells; test: qHTS for survival of dissociated H9 cells (CellTiter-Glo, 24 hours after seeding); assay type: cell-based, human; conditions: Homo sapiens; for AC50: CellTiter-Glo 24 hours after seeding, read-out: AC50 (concentration at 50% efficacy)
Excerpt: FIG. 2 schematically illustrates qHTS procedure.
All the screed compounds were received pre-plated at the pre-determined concentrations. […] Curve classification is explained in Huang et al. “Chemical genomics profiling of environmental chemical modulation of human nuclear receptors” Environ. Health. Perspect.

[4] = test system: H9 cells; test: Dose-response curves of selected ROCK inhibitors, cell survival (CTG); assay type: cell-based, human; conditions: four replicates, normalized to CTG reading at 10 μM Y-27632
Excerpt: Molar concentrations of the selected ROCK inhibitors are plotted on the X-axis (log scale). […] Thusly normalized data were plotted on the Y-axis.

[5] = test system: H9 cells; test: Embryoid body formation assays; conditions: AggreWell plates, 24 hours after seeding
Protocol: In one series of experiments, H9 cells were dissociated with Accutase. […] Embryoid body (EB) formation was examined 24 hours after cell seeding.
In a different experimental approach (data not shown), a defined number of H9 cells was plated into AggreWell™ plates (StemCell Technologies, Vancouver, Canada) to generate single EBs per well. Embryoid body (EB) formation was examined 24 hours after cell seeding.
Pluripotent stem cells (WA09, also called H9 cells, obtained from WiCell, Madison, Wis.) dissociated with Accutase were seeded into AggreWell™ plates (StemCell Technologies, Vancouver, Canada) to generate EBs. Bright field images were taken 24 hours after seeding.
H9 cells dissociated with Accutase were seeded into 96-well plates (ultra-low attachment) to generated EBs. After 24 hours, calcein (green staining, live cells) and PI (red staining, dead cells) were added to the cell culture medium to visualize live and dead cells in the wells.

[6] = test system: human kinases; test: Kinase profiling, HotSpot Kinase Assay; assay type: biochemical; conditions: Y-27632 at 10 μM, Chroman 1 at 50 nM; for specificity / off-target inhibition: under 10% of original activity deemed significant
Excerpt: The results of kinase profiling experiments are illustrated in FIG. 8. […] The phylogenic trees of human kinases were generated based on a neighbor-joining tree via ClustalW software derived from multiple protein sequence alignment of human kinase domains (Manning et al., “The protein kinase complement of the human genome” Science 298:1912-1934 (2002)).

[7] = test system: H9 cells; test: Survival and attachment of single-cell dissociated cells (CellTiter-Glo, time-lapse imaging); assay type: cell-based, human; conditions: 50 nM Chroman 1, 5 μM Emricasan; vitronectin-coated plates, over 24 hours
Protocol: CellTiter-Glo® assay was used to quantify viable […] cells 24 hours post-plating (100,000 cells/[…]). […] Cellular stress was already apparent 20 minutes after plating in the presence of Emricasan, which ultimately led to dead cells at 24 hours.

[8] = test system: H9 cells; test: Long-term passaging of H9 cells (40 passages); assay type: cell-based, human; conditions: 24 hours treatment at every passage
[9] = test system: H9 cells; test: Combinatorial matrix screening for synergistic effects on cell survival; assay type: cell-based, human; conditions: 10×10 matrix, normalized to 10 μM Y-27632
Protocol: Combinatorial matrix screening was performed to identify the compounds with synergistic effects on cell survival. Focusing on the compounds with different mechanisms of action, 29 compounds were selected for combinational matrix screening, resulting in 812 sets of 10×10 checkerboard matrix experiments (data not shown), four of which are illustrated in FIG. 9. The concentrations of the compounds for combinational matrix screening were optimized based on the slope and potency (AC50) derived from single-agent qHTS dose-response curves, so that the matrix screen covered a wide range of biological effect observed in the cell viability assay. […] The numerals in each 10×10 matrix show the maximum survival achieved with the indicated combinations or single agents. The maximum survival achieved by each pair of compounds is represented by the highest numbers in each 10×10 matrix, the examples of which are shown in FIG. 9. The bottom matrices depict the synergy matrix calculated using highest-single agent (HSA) model. The HSA synergy assesses the pro-survival benefit of compound combination compared to single agent alone, which was computed as the difference between cell survival out of combination and that from the best single agent at each tested concentration. Synergy is defined as the difference between the combination and max response with single agent (synergy=combination max (single agent A, single agent B).

[10] = test system: hESCs (H9); test: Western blot of hESCs after passaging; assay type: cell-based, human; conditions: 3 hours post-passage
Excerpt: GAPDH was used as a loading control and house-keeping protein control.
Higher observed levels of phosphorylated CHK2 on threonine 68 indicated cell cycle arrest.

[11] = test system: OCT4 expressing cells; test: Microscopy of stress mechanisms during cell passaging; assay type: cell-based; conditions: 3 hours post-plating
Protocol: The scale bars shown are 10 μm. Upper panel illustrates confocal microscopic analysis of the lamin B1-GFP iPSC reporter line (Allen Insitute for Cell Science, Seattle, Wash.) displaying dramatic morphological differences in nuclear shape during cell passaging (30 min after plating). […] Lower panel illustrates dramatic cytoskeletal differences during cell passaging (3 hours post-plating), as measured by immunocytochemistry against actin and myosin.

[12] = test system: H9 cells; test: Propidium iodide dead cell count of dissociated H9 cells; assay type: cell-based, human; conditions: 10 μM Y-27632 vs 50 nM Chroman 1; 12 hours after plating; EDTA or Accutase dissociation
Protocol: H9 cells were dissociated with 0.5 mM ethylenediaminetetraacetic acid (EDTA) or Accutase (enzymatic dissociation) according to standard procedures and seeded into vitronectin coated 6-well plates. Phase-contrast and fluorescence microscopy digital images were taken 12 hours after cell plating (data not shown). To generate the fluorescence microscopy images, live cells were stained with Calcein (0.5 μg/ML; Thermo Fisher Scientific, catalog number: C34852), and dead cells were stained with propidium iodide (PI; 500 nM; Thermo Fisher Scientific, catalog number: P3566). For quantitative analysis, the cells were counted using an automated cell counter (Cellometer Auto 2000, Nexcelom). The results of PI staining are illustrated in the bar graph shown in the right panel of FIG. 5.

[13] = test system: H9 cells; test: Low seeding density screen for synergy with Chroman 1 and Emricasan; assay type: cell-based, human; conditions: validation of qHTS hits
Protocol: To extend and maximize the use of Chroman 1 and Emricasan for low cell seeding density conditions and single cell cloning, we developed another combinatorial screening strategy. Experimental studies were performed that identified Trans-ISRIB and polyamines as additional cell survival-promoting factors. An assay was developed to screen for compounds that are capable of overcoming cellular stress associated with low cell seeding density. The experiments aimed to define the detection limit and signal strength of the CTG assay in order to detect single cells per well. H9 cells (obtained from WiCell) were used.
Dissociated stem cells were plated onto vitronectin-coated 1536-well plates at the per-well densities indicated on the X-axis. All the plates were prepared in duplicates. One set of plates was read with CTG right after dispensing (r1), and the other set was read 24 hours after (r2). The CTG fold change plotted on Y-axis was calculated as the ratio of r2 to r1 (r2/r1) to reflect cell survival and growth within 24 hours. […] The middle line within the box is the median cell growth. The upper and lower box hinges represent the 75th and 25th percentiles, whereas the upper and lower whiskers extend from the box hinge to the largest or lowest value no further than 1.5× distance between 25th and 75th percentile.

[14] = test system: H9 cells; test: Colony formation at 25 cells/cm2; assay type: cell-based, human
Protocol: The experiments were performed validating the “hits” obtained from the primary screening. Pluripotent stem cells (H9 cells obtained from WiCell) were dissociated using TrypLE (Thermo-Fisher) and seeded into 6-well plates at a density of 25 cells/cm′.
Whole-well images (6-well plate) were captured with calcein green (0.5 μg/mL; Thermo Fisher Scientific, catalog number: C34852).
Systematic comparison of small molecule combinations and their effect on colony number and colony size of hESCs plated on vitronectin at 25 cells/cm^2 in StemFlex medium was performed. The quantification of the colony formation rate and median colony size was performed 6 days after plating.

[15] = H9, 24 h, H9 cell survival normalized to 10 μM Y-27632 (taken to be 100%), read-out: Max (maximum activity value from all tested concentrations)
[16] = H9, 24 h, H9 cell survival, normalized to 10 μM Y-27632, read-out: Efficacy (activity range between predicted activities at zero and infinite doses, Hill equation)

T1 sequence (Q13464 whole entry): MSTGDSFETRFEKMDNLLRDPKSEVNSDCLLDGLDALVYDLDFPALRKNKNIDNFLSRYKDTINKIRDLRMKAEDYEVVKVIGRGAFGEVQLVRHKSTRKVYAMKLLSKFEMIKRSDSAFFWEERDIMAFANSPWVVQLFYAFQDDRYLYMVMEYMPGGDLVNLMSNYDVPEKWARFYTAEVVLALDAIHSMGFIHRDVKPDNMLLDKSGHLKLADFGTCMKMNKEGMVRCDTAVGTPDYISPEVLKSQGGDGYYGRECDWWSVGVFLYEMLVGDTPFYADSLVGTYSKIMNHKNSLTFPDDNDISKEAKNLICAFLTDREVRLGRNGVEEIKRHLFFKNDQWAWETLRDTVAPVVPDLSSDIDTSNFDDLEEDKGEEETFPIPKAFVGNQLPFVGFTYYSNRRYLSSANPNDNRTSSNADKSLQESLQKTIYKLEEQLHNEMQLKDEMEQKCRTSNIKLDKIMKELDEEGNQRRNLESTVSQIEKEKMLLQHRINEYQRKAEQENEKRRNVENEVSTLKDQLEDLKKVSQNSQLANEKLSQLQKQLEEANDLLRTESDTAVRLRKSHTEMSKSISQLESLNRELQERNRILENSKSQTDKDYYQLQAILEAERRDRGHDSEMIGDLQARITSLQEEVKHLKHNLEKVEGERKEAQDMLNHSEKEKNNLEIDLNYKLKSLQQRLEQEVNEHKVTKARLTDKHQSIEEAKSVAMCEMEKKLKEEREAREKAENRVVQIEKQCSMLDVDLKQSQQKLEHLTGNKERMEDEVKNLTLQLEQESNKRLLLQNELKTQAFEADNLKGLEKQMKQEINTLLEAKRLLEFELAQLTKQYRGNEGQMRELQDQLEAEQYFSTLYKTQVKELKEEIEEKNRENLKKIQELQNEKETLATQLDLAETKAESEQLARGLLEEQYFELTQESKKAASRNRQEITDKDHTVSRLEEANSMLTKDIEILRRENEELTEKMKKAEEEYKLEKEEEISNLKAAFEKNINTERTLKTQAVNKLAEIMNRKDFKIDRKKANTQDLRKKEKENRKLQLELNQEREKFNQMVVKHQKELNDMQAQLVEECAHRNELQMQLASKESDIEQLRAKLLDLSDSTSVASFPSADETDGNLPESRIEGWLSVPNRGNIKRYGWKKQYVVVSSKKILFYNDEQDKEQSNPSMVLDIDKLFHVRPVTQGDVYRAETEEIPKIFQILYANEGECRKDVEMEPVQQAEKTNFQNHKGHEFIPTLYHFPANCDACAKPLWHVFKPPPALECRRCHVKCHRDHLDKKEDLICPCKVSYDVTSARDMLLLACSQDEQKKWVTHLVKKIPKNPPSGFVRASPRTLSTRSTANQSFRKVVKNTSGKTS

primary targets [6] | Structure (SMILES) | cell survival after single-cell dissociation [1] | Emax [3, 15] | Emax [3, 16] | single EB formation and dead cells [5] | specificity / off-target inhibition [6] | cell attachment and survival in time-lapse imaging [7] | also measured
ROCK1 and ROCK2 | COc1ccc2c(c1)C[C@H](C(=O)Nc1ccc(-c3cn[nH]c3)cc1OCCN(C)C)CO2 [Chroman 1, (3S)—N-{2-[2-(Dimethylamino)ethoxy]-4-(1H-pyrazol-4-yl)phenyl}-6-methoxy-3,4-dihydro-2H-1-benzopyran-3-carboxamide] | further improved cell survival | 110% | 108% | amount of dead cells was significantly lower | higher specificity | cell attachment already 20 min after plating | IC50 against ROCK1 (comparison in words) [2]: more potent ROCK inhibitor than Y-27632; AC50 ([3]; H9, 24 h, H9 cell survival): 0.29 µM; potency in dose-response of cell survival [4]: more potent than to Y-27632, Thiazovivin or Fasudil; karyotype after long-term passaging [8]: maintained a normal karyotype
– | C[C@H](NC(=O)C(=O)Nc1ccccc1C(C)(C)C)C(=O)N[C@@H](CC(=O)O)C(=O)COc1c(F)c(F)cc(F)c1F [Emricasan, 3-(2-(2-tert-butylphenylaminooxalyl)aminopropionylamino)-4-oxo-5-(2,3,5,6-tetrafluorophenoxy)pentanoic acid] | – | – | – | did not result in proper cell aggregation and EB formation | – | not sufficient to improve cell viability beyond 24 hours | synergy with Chroman 1 on cell survival (HSA model) [9]: synergistic with Chroman 1; Emax ([3]; H9, 24 h, read-out: Efficacy (activity range between predicted activities at zero and infinite doses, Hill equation)): 95.8%; Emax ([3]; H9, 24 h, read-out: Max (maximum activity value from all tested concentrations)): 76.4%; AC50 ([3]; H9 cell survival): 33.2 µM
ROCK1 and ROCK2 | C[C@@H](N)[C@H]1CC[C@H](C(=O)Nc2ccncc2)CC1 [Y-27632] | beneficial | 95.5% | 96.2% | Dead cells surrounded the EBs | a number of off-targets, including PKCeta (also known as PKC η or PRKCH), PKCepsilon (also known as PKC ε or PRKCE), PKCdelta (also known as PKC δ or PRKCD), PKN1, PKN2 and PRKX | – | phosphorylated eIF2A at serine 51 [10]: High levels of p-eIF2A(S51); stress response markers (γH2AX, ATF4) [10]: Strong stress response; cytoskeleton (actin, myosin immunocytochemistry) [11]: form prominent actin stress fibers at the colony edge; γH2AX immunoreactivity [11]: immunoreactive for γH2AX; number of propidium iodide-positive dead cells [12]: higher number of dead cells than Chroman 1 treatment
– | O=C(COc1ccc(Cl)cc1)N[C@H]1CC[C@H](NC(=O)COc2ccc(Cl)cc2)CC1 [trans-ISRIB, N,N′-((1r,4r)-cyclohexane-1,4-diyl)bis(2-(4-chlorophenoxy)acetamide)] | – | – | – | – | – | – | cell survival at low density combined with 50 nM Chroman 1 and 5 μM Emricasan [13]: cell survival-promoting effect; cell survival when added to the combination of Chroman 1 and Emricasan [14]: further improved cell survival
